# Experimental data published in paper PMC6324813, “Biological evaluation of isoflavonoids from Genista halacsyi using estrogen-target cells: Activities of glucosides compared to aglycones” (PLoS ONE, 2019).
# Assays:
# MC3T3-E1 cells = experiment: Differentiation of MC3T3-E1 cells to osteoblasts, AlkP activity; type: cell-based, mouse; conditions: DF + E2 1 nM or compound 1 μM; 6 days; DF plus vehicle = 100
# Method: Differentiation of MC3T3-E1 cells was carried out in 96-well plates using 3,300 cells per well and was assessed via induction of, i) Alkaline Phosphatase (AlkP) activity after 6 days of treatment and, ii) mineralization of extracellular matrix after 21 days of treatment. Briefly, 24 h after plating, the cells were incubated with test compounds or vehicle i.e. the compound diluent (0.1% DMSO) and then exposed for 6 days to differentiation medium in presence or absence of differentiation factors (cf. Cell culture) with a change to fresh compounds and medium in 3 days. AlkP activity was assessed at 405 nm in a Safire II microplate reader using as substrate p-nitrophenyl-phosphate (pNPP, Sigma-Aldrich) as already described. Mineralization of MC3T3 cells was assessed by staining with Alizarin red (Fluka). Cells were cultured and treated as described above for 21 days, with media and test compounds changed every 3 days, and calcium phosphate deposition was assayed as described by Gregory et al.. Briefly, the cells were washed twice with PBS and fixed with 70% ethanol for 15 min on ice. The cells were stained with Alizarin red solution (40 mM, pH 4.2) for 30 min at room temperature, washed twice with distilled water and once with PBS. The dye from the stained mineral deposits was extracted with 33% acetic acid and the absorbance was measured at 405 nm using a Safire II microplate reader (Tecan).
# HT22 cells = experiment: Glutamate toxicity (oxytosis) of HT22 neuronal cells (MTT); conditions: 1 nM estradiol or 1 μM compound; for viability of HT22 cells under normal growth conditions compared to vehicle-treated cells: no glutamate; for viability of glutamate-treated HT22 cells (% of glutamate-free cells): 5 mM glutamate 24 h
# Method: Glutamate-challenged HT22 cells suffer oxidative stress-induced cell death (oxytosis) within 24 h due to glutathione depletion and consequent massive accumulation of ROS [42]. The efficacy of test compounds to prevent oxytosis of HT22 cells was assessed as already described. Briefly, HT22 cells were plated in 96-well flat bottom plates at a density of 4,000 cells per well in 100 μl of DMEM (low glucose) containing 2% FBS. 24 h after plating, the cells were treated with test compounds or compound diluent (0.1% DMSO) and then challenged with 5 mM glutamate for 24 h. […] Non-challenged cells served to assess test compound effects on cell viability, whereas challenged cells served to assess the neuroprotective activity of test compounds.
# ERα [1] = target: T1, ERα (Homo sapiens, UniProt P03372); experiment: ERE-dependent luciferase gene transcription in MCF-7:D5L cells; type: cell-based; design: MCF-7:D5L cells, a clone of MCF-7 cells stably transfected with an Estrogen Response Element (ERE)-endowed reporter plasmid; endogenous in cells; host or cells: MCF-7:D5L (MCF-7 clone carrying pERE-Gl-Luciferase)
# T1 sequence (P03372 1-595): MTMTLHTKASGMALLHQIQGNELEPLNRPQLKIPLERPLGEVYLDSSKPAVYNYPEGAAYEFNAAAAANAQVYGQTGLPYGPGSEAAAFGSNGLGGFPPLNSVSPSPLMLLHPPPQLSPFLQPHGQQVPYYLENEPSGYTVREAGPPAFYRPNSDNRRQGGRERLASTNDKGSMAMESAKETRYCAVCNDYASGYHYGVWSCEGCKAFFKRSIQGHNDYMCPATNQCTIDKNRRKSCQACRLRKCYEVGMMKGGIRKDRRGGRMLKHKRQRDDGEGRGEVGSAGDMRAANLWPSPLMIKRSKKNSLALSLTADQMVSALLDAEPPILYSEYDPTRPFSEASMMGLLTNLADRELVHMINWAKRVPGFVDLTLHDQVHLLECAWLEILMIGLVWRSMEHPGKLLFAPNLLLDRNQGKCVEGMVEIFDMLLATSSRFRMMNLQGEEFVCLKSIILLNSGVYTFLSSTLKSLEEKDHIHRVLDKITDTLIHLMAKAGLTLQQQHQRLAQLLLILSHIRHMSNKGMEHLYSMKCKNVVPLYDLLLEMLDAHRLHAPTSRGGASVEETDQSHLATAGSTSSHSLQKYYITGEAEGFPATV
# Method: Assessment of ER/ERE-dependent luciferase gene transcription in MCF-7:D5L (express ERα) and HEK:ERβ cells (express ERβ) and determination of ER transcriptional agonism was carried as already described. Briefly, the cells were plated in 96-well plates at a density of 12,000 cells per well in phenol-red-free MEM (MCF-7:D5L cells) or phenol-red-free DMEM (HEK:ERβ cells) supplemented with 1 μg/mL insulin and 5% DCC-FBS. […] The AUC of the isoflavonoids of each group were then expressed as % of the AUC of the respective archetypal isoflavone. Since AUC data combine the efficacy as well as the potency of cell response into a single parameter, the %AUC data were considered here as a more reliable measure of relative ER/ERE-dependent luciferase expression of the test compounds.
# ERβ [2] = target: T2, ERβ (Homo sapiens, UniProt Q92731); experiment: ER binding competitor assay (fluorescent estrogen ES2), ERβ; design: purchased Invitrogen
# ERα [3] = target: T1, ERα; design: purchased Invitrogen; conditions: cited from earlier work
# ERβ [4] = target: T2, ERβ; design: purchased Invitrogen; conditions: cited from earlier work
# T2 sequence (Q92731 whole entry): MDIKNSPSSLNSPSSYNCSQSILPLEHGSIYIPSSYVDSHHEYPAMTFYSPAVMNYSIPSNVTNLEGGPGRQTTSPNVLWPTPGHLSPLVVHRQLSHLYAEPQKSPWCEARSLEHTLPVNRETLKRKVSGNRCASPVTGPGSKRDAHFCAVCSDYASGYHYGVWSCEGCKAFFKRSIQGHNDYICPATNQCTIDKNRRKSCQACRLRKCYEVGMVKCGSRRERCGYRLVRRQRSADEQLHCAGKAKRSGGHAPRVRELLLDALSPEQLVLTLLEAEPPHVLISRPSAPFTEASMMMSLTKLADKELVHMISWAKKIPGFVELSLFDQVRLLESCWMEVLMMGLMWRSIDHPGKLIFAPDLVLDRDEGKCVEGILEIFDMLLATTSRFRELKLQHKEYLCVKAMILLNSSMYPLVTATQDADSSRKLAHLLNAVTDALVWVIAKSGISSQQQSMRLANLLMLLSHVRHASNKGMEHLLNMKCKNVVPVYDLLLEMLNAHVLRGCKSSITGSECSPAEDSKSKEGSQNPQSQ
SMILES,"Differentiation of MC3T3-E1 cells, AlkP expression (%) (MC3T3-E1 cells)",viability of HT22 cells under normal growth conditions compared to vehicle-treated cells (HT22 cells),viability of glutamate-treated HT22 cells (% of glutamate-free cells) (HT22 cells) [%],"Induction of ERE-dependent Luciferase Transcription (MCF-7:D5L cells) AUC (%) (ERα [1]; % of AUC of luciferase response of archetypal 3, 4, 5 or 8 up to 0.3, 10, 1.0 and 3.0 μM)","Induction of luciferase gene transcription through ERα, MCF-7:D5L cells, Agonism at 1μΜ (% of 0.1nM E2) (ERα [1]; compounds 1 μM, estradiol 0.1 nM, 18 h)",Induction of ERE-dependent Luciferase Transcription (MCF-7:D5L cells) EC25E2 (ERα [1]; concentration required to achieve 25% of the effect of 0.1 nM E2) [µM],"EC50 (ERα [1]; concentration required to achieve 50% of the effect of 0.1 nM E2, read-out: Induction of ERE-dependent Luciferase Transcription (MCF-7:D5L cells) EC50E2) [nM]","ERα-dependent gene transcription agonist effect compared to the effect of 0.1 nM estradiol (ERα [1]; isoflavonoids 1 μM, statistically significant effects)",RBAβ / RBAα (ERβ [2]; ERβ-binding selectivity),"RBAβ (ERβ [2]; RBA = (IC50 estradiol/IC50 compound) × 100, ES2 1 nM, estradiol set equal to 100)",mean value (and the range) of previously reported RBAα (ERα [3]),mean value (and the range) of previously reported RBAβ (ERβ [4])
"O=c1c(-c2ccc(OC3O[C@H](CO)[C@@H](O)[C@H](O)[C@H]3O)cc2)coc2cc(OC3O[C@H](CO)[C@@H](O)[C@H](O)[C@H]3O)cc(O)c12 (stereo partly drawn) [Compound 11, 7,4΄-di-O-glucopyranosylgenistein]",120±6,not different,≤ 40,75±6,114 ± 4 (Full) % of 0.1nM E2,0.04 ± 0.01,150 ± 30,very similar to estradiol,–,–,–,–
"O=c1c(-c2ccc(O)cc2)coc2cc(O[C@@H]3O[C@H](CO)[C@@H](O)[C@H](O)[C@H]3O)cc(O)c12 [Compound 12, 7-O-β-D-glucopyranosyl-genistein]",125±8,not different,≤ 40,–,–,–,–,–,1.75,0.07 ± 0.02,< 0.01,< 0.01
